Assay results from article PMC3117672 (ChemMedChem, 2010).

Biological target: mPTPB (Mycobacterium tuberculosis, UniProt I6WXK4)
Conditions: read-out: IC50 for mPTPB; pH 7

mPTPB, sequence (I6WXK4 whole entry, looked up): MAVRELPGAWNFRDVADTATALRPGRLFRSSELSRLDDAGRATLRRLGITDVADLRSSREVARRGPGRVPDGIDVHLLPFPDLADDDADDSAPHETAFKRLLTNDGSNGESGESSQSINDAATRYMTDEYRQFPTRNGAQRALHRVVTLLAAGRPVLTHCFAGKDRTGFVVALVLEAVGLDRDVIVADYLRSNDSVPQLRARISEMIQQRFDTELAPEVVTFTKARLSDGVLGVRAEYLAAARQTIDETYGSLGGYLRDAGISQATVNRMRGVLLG

## C#CCOc1c(C(=O)O)cc2cc(Cl)cc(OCC#C)c2c1Cl [Compound L5]
  IC50: 75 µM
